The target in the experiment is T1, Nav1.7 (or SCN9A) channel; HEK cells stably transfected with hSCN9A (Homo sapiens, UniProt Q15858).
T1 construct: expressed in transfected cells
In words: Nav1.7 block, PatchXpress 7000 automated whole-cell voltage clamp, estimated IC50 (EIC50). The conditions noted are these: estimated IC50; hSCN9A HEK cells, PatchXpress platform; Examples 283-814. The format is cell-based.

Where only a bound is given, the exact number is not on record here.

T1 sequence (Q15858 whole entry): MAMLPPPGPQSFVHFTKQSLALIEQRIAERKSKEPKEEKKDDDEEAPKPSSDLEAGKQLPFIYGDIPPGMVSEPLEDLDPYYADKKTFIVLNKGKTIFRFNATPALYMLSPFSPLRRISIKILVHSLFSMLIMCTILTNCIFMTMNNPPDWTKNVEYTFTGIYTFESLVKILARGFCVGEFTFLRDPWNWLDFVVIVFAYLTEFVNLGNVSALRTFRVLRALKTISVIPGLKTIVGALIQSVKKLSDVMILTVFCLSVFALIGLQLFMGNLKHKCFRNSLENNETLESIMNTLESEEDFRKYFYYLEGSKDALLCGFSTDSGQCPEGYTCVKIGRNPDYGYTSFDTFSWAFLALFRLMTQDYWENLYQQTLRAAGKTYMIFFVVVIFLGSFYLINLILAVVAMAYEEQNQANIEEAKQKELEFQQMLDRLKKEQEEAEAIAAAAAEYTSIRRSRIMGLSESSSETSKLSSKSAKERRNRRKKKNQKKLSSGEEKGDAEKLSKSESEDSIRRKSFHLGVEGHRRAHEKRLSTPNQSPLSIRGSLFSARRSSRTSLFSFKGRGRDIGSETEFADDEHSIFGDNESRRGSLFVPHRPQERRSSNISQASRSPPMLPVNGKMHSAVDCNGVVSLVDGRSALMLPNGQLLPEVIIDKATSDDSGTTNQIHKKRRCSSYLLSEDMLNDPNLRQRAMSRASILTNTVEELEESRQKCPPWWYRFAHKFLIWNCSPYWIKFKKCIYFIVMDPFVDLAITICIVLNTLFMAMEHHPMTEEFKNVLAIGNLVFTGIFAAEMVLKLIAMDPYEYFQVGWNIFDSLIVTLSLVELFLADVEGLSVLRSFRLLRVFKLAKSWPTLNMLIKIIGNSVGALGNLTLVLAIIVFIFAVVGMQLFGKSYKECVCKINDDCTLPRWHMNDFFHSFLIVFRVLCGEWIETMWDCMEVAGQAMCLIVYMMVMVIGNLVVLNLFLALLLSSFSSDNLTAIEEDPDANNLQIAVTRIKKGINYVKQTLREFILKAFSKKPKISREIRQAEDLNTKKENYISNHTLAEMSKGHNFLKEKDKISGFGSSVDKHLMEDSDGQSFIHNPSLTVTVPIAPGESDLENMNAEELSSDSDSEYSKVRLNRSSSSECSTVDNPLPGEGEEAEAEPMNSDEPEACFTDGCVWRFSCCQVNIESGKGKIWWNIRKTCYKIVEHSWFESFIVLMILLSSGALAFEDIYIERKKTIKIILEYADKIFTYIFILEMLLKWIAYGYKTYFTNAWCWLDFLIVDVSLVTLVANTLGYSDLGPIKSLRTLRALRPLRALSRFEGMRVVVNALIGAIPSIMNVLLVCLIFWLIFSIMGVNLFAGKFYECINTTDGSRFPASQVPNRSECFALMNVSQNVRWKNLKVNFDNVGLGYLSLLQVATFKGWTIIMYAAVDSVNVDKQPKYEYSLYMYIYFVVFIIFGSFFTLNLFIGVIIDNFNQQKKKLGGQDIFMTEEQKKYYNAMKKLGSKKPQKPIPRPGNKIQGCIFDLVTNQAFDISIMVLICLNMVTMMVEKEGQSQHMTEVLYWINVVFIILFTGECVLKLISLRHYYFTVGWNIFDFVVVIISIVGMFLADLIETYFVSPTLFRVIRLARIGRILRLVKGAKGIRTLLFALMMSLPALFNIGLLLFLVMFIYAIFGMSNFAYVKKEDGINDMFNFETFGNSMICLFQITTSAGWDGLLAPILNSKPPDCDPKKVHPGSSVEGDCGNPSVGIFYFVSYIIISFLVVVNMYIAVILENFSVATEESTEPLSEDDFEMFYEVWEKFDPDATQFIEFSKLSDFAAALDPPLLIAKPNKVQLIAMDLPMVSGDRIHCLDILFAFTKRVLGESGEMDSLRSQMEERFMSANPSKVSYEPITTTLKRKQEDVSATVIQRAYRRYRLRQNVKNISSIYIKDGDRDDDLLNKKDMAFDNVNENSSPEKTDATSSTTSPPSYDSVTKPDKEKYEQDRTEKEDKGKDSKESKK

The IC50 is the concentration that inhibits the measured activity by half. Consider `Cn1nccc1-c1cc(Cl)ccc1Oc1ccc(S(=O)(=O)Nc2ncc(F)cc2F)cc1F` [Example 667, 4-[4-chloro-2-(1-methyl-1H-pyrazol-5-yl)phenoxy]-N-(3,5-difluoropyridin-2-yl)-3-fluorobenzenesulfonamide], for which the IC50 was 3100 nM.
Turning to `Cn1nccc1-c1cc(Cl)ccc1Oc1ccc(S(=O)(=O)Nc2ccncn2)cc1Cl` [Example 668, 3-Chloro-4-[4-chloro-2-(1-methyl-1H-pyrazol-5-yl)phenoxy]-N-pyrimidin-4-ylbenzenesulfonamide], the IC50 was 53 nM.
For the compound `Cn1nccc1-c1cc(F)ccc1Oc1ccc(S(=O)(=O)Nc2ccncn2)cc1Cl` [Example 669, 3-Chloro-4-[4-fluoro-2-(1-methyl-1H-pyrazol-5-yl)phenoxy]-N-pyrimidin-4-ylbenzenesulfonamide], the IC50 is 200 nM.
For the compound `Cn1nccc1-c1cc(Cl)ccc1Oc1ccc(S(=O)(=O)Nc2ccncn2)cc1F` [Example 670, 4-[4-Chloro-2-(1-methyl-1H-pyrazol-5-yl)phenoxy]-3-fluoro-N-pyrimidin-4-ylbenzenesulfonamide], the concentration for half-maximal inhibition (IC50) was 350 nM.
Consider `N#Cc1cc(S(=O)(=O)Nc2ncns2)ccc1Oc1ccc(C(F)(F)F)cc1-c1cnccn1` [Example 671, 3-cyano-4-[2-pyrazin-2-yl-4-(trifluoromethyl)phenoxy]-N-1,2,4-thiadiazol-5-ylbenzenesulfonamide], for which the IC50 was 260 nM.
With `O=S(=O)(Nc1cscn1)c1ccc(Oc2ccc(Cl)cc2-c2cn[nH]c2)cc1` [Example 672, 4-[4-chloro-2-(1H-pyrazol-4-yl)phenoxy]-N-1,3-thiazol-4-ylbenzenesulfonamide], the IC50 was 2500 nM.
`O=S(=O)(Nc1cscn1)c1ccc(Oc2ccc(Cl)cc2-c2cn[nH]c2)c(Cl)c1` [Example 673, 3-chloro-4-[4-chloro-2-(1H-pyrazol-4-yl)phenoxy]-N-1,3-thiazol-4-ylbenzenesulfonamide]: the IC50 was 690 nM.
In the case of `O=S(=O)(Nc1ncc(F)s1)c1ccc(Oc2ccc(Cl)cc2-c2cn[nH]c2)c(F)c1` [Example 674, 4-[4-chloro-2-(1H-pyrazol-4-yl)phenoxy]-3-fluoro-N-(5-fluoro-1,3-thiazol-2-yl)benzenesulfonamide], the IC50 was 88 nM.
With `Cn1nccc1-c1cc(F)ccc1Oc1c(F)cc(S(=O)(=O)Nc2ncns2)cc1C#N` [Example 675, 3-cyano-5-fluoro-4-[4-fluoro-2-(1-methyl-1H-pyrazol-5-yl)phenoxy]-N-1,2,4-thiadiazol-5-ylbenzenesulfonamide], the IC50 is 370 nM.
Consider `N#Cc1cc(S(=O)(=O)Nc2ncns2)cc(F)c1Oc1ccc(Cl)cc1-c1cn[nH]c1` [Example 676, 4-[4-chloro-2-(1H-pyrazol-4-yl)phenoxy]-3-cyano-5-fluoro-N-1,2,4-thiadiazol-5-ylbenzenesulfonamide], for which the IC50 is 190 nM.
Regarding `O=S(=O)(Nc1nccs1)c1cc(F)c(Oc2ccc(OC(F)(F)F)cc2-c2cn[nH]c2)cc1F` [Example 677, 2,5-difluoro-4-[2-(1H-pyrazol-4-yl)-4-(trifluoromethoxy)phenoxy]-N-1,3-thiazol-2-ylbenzenesulfonamide], the IC50 was 12 nM.
As for `Cn1nc(C(F)(F)F)cc1-c1ccc(Oc2cc(F)c(S(=O)(=O)Nc3nccs3)cc2F)cc1` [Example 678, 2,5-difluoro-4-{4-[1-methyl-3-(trifluoromethyl)-1H-pyrazol-5-yl]phenoxy}-N-1,3-thiazol-2-ylbenzenesulfonamide], the IC50 is 260 nM.
On to `O=S(=O)(Nc1nccs1)c1cc(F)c(Oc2ccc(Cl)cc2-c2cn[nH]c2)cc1F` [Example 679, 4-[4-chloro-2-(1H-pyrazol-4-yl)phenoxy]-2,5-difluoro-N-1,3-thiazol-2-ylbenzenesulfonamide], for which the IC50 was 31 nM.
Regarding `O=S(=O)(Nc1cscn1)c1ccc(Oc2ccc(Cl)cc2-c2cn[nH]c2)cc1F` [Example 680, 4-[4-chloro-2-(1H-pyrazol-4-yl)phenoxy]-2-fluoro-N-1,3-thiazol-4-ylbenzenesulfonamide], the IC50 is 1000 nM.
As for `Cn1nccc1-c1cc(Cl)ccc1Oc1ccc(S(=O)(=O)Nc2cscn2)c(F)c1` [Example 681, 4-[4-chloro-2-(1-methyl-1H-pyrazol-5-yl)phenoxy]-2-fluoro-N-1,3-thiazol-4-ylbenzenesulfonamide], the IC50 was 1200 nM.
Take `Cn1nc(C(F)(F)F)cc1-c1ccc(Oc2cc(F)c(S(=O)(=O)Nc3ncc(F)s3)cc2F)cc1` [Example 682, 2,5-difluoro-N-(5-fluoro-1,3-thiazol-2-yl)-4-{4-[1-methyl-3-(trifluoromethyl)-1H-pyrazol-5-yl]phenoxy}benzenesulfonamide]: the IC50 is 710 nM.
In the case of `O=S(=O)(Nc1ncc(F)s1)c1cc(F)c(Oc2ccc(Cl)cc2-c2cn[nH]c2)cc1F` [Example 683, 4-[4-chloro-2-(1H-pyrazol-4-yl)phenoxy]-2,5-difluoro-N-(5-fluoro-1,3-thiazol-2-yl)benzenesulfonamide], the IC50 is 22 nM.
On to `Cn1nc(C(F)(F)F)cc1-c1ccc(Oc2ccc(S(=O)(=O)Nc3nccs3)cc2F)cc1` [Example 684, 3-fluoro-4-{4-[1-methyl-3-(trifluoromethyl)-1H-pyrazol-5-yl]phenoxy}-N-1,3-thiazol-2-ylbenzenesulfonamide], for which the IC50 is 1000 nM.
Regarding `O=S(=O)(Nc1nccs1)c1ccc(Oc2ccc(Cl)cc2-c2cn[nH]c2)c(F)c1` [Example 685, 4-[4-chloro-2-(1H-pyrazol-4-yl)phenoxy]-3-fluoro-N-1,3-thiazol-2-ylbenzenesulfonamide], the IC50 is 130 nM.
For the compound `O=S(=O)(Nc1nccs1)c1ccc(Oc2ccc(F)cc2-c2cn[nH]c2)c(F)c1` [Example 686, 3-fluoro-4-[4-fluoro-2-(1H-pyrazol-4-yl)phenoxy]-N-1,3-thiazol-2-ylbenzenesulfonamide], the IC50 was 330 nM.
With `O=S(=O)(Nc1nccs1)c1ccc(Oc2ccc(OC(F)(F)F)cc2-c2cn[nH]c2)c(F)c1` [Example 687, 3-fluoro-4-[2-(1H-pyrazol-4-yl)-4-(trifluoromethoxy)phenoxy]-N-1,3-thiazol-2-ylbenzenesulfonamide], the IC50 was 80 nM.
Regarding `COc1cc(-c2cc(F)ccc2Oc2cc(F)c(S(=O)(=O)Nc3cscn3)cc2Cl)n(C)n1` [Example 688, 5-Chloro-2-fluoro-4-[4-fluoro-2-(3-methoxy-1-methyl-1H-pyrazol-5-yl)-phenoxy]-N-1,3-thiazol-4-yl-benzenesulfonamide], the half-maximal inhibitory concentration (IC50) is 5100 nM.
On to `O=S(=O)(Nc1cscn1)c1cc(Cl)c(Oc2ccc(C(F)(F)F)cc2-c2cncc(CO)c2)cc1F` [Example 689, 5-Chloro-2-fluoro-4-{2-[5-(hydroxymethyl)pyridin-3-yl]-4-(trifluoromethyl)phenoxy}-N-1,3-thiazol-4-ylbenzenesulfonamide], for which the IC50 was above 300 nM.
Next, `N#Cc1cc(S(=O)(=O)Nc2nccs2)ccc1Oc1ccc(Cl)cc1C1CNC1` [Example 690, 4-(2-azetidin-3-yl-4-chlorophenoxy)-3-cyano-N-1,3-thiazol-2-ylbenzenesulfonamide]: 110 nM; `Cc1ccccc1-c1cc(Cl)ccc1Oc1ccc(S(=O)(=O)Nc2nccs2)cc1C#N` [Example 692, 4-[(5-chloro-2′-methylbiphenyl-2-yl)oxy]-3-cyano-N-1,3-thiazol-2-ylbenzenesulfonamide]: 110 nM.

(Values after patent US8541588B2, “Sulfonamide derivatives” (Pfizer Limited, priority 2009, dated 2013).)
